Values quoted from earlier work in patent publication US11439626B2 (Icahn School of Medicine at Mount Sinai, priority 2019, dated 2022).
Read-outs that look alike come from different tables or passages of the source.

Columns and labels:
[1] = tested on: patients with traumatic spinal cord injuries; conditions: cervical injuries, 90 days post-injury
[2] = for % Abs: 100 mg dose
[3] = not given; remark: listed apart in the source

Nc1nc2ccc(OC(F)(F)F)cc2s1 [riluzole, 2-Amino-6-(trifluoromethoxy)benzothiazole]
motor outcomes [1]: improved motor outcomes | Cmin ([2]; 100 mg BID treatment arm, reported by Le Liboux et al.): ~40 ng/mL | % Abs ([2]; Fasted (observed)): 100% | % Abs ([2]; Fed (observed)): 80% | dose recovered in the urine (human, in vivo): 90% | dose recovered in the urine as glucuronides (human, in vivo): 85% | dose recovered in the urine as unchanged riluzole (human, in vivo): 2% | fecal excretion of administered dose (human, in vivo): 5% | accumulation (repeated twice daily dosing): approximately 2 fold | trough concentrations ([3]; 50 mg twice daily, non-smoking males, predicted profile (Bruno et al.)): ~0.03 µg/mL | Proportional error ([3]; error model parameter (SIGMA)): 0.0697 | V/F Inter-occasion variability ([3]; variability parameter (ETA)): 0.111
